In paper PMC7156612, “Olinciguat, an Oral sGC Stimulator, Exhibits Diverse Pharmacology Across Preclinical Models of Cardiovascular, Metabolic, Renal, and Inflammatory Disease” (Frontiers in Pharmacology, 2020):
“And” between values parts separate entries of the source, which are not always exact repeats. Equal entries are not always repeated. Where two headings read alike, the source gives them in different places.

What was measured:
[1] = test system: human subcutaneous resistance arteries; assay: Human vascular smooth muscle relaxation (U46619-precontracted arteries); assay type: cell-based; details: for EC50: Homo sapiens
Procedure: The effect of olinciguat on relaxation of contracted human subcutaneous resistance arteries was determined according to methods described in ([Tobin et al., 2018]). In brief, human subcutaneous resistance arteries were obtained from three donors (females ages 27–51) undergoing elective surgeries. Arteries were mounted in a tissue bath and precontracted with the thromboxane mimetic, U46619 (100 nM). Only tissues containing functional endothelium, as determined by relaxation in response to acetylcholine (10 µM), were used. A cumulative concentration-response curve (0.1 to 10 µM) was generated for olinciguat, followed by addition of the NO donor sodium nitroprusside (100 μM). Percent relaxation at each olinciguat concentration was determined relative to the U46619-mediated contraction. Using GraphPad Prism v.7, a sigmoidal dose-response (variable slope) curve was fit with the bottom value constrained to zero to determine the EC50.

[2] = test system: spontaneously hypertensive rats (SHR); assay: Arterial hemodynamics by telemetry in spontaneously hypertensive rats; assay type: in vivo, rat
Procedure: (§1) The Dataquest A.R.T.™ acquisition and analysis system (Data Sciences International [DSI], St. Paul, MN) was employed to monitor and analyze hemodynamic data from conscious, freely moving rats surgically implanted with a telemetry pressure transmitter (PA-C40). Telemetry transmitter implantation was performed on rats under sterile conditions. Rats were anesthetized with isoflurane and body temperature was maintained with a heating pad during surgery. A laparotomy was performed to expose the abdominal aorta. The catheter tip of the telemetry transmitter was inserted into the abdominal aorta and secured with a 5-0 silk suture (Ethicon, Inc., Somerville, NJ). The abdominal incision was closed with uninterrupted suture (4-0 silk, Ethicon, Inc., Somerville, NJ) and the telemetry transmitter was placed in the abdominal cavity and secured to the abdominal wall. Approximately 100 µl of 0.25% marcaine was applied directly to the closed abdominal wall, and the skin was then closed with suture (4-0 Vicryl® absorbable, Ethicon, Inc., Somerville, NJ). Buprenorphine (0.05 mg/kg/day, subcutaneous [s.c.]) was administered immediately after the surgery for postoperative pain relief. After recovery from anesthesia, rats were returned to their home cages, placed on DSI receivers, and allowed a 5- to 14-day recovery period. Arterial hemodynamics were measured continuously and recorded throughout the study. For acute studies, analysis was based on hourly averages, for chronic studies, analysis was based on daily or weekly averages.
Spontaneously hypertensive rats (SHRs) (n=6, male, 230–250 g, 14 weeks of age) and Wistar rats (n=6, male, 230–250 g, 12 weeks of age) were implanted with telemetry transmitters as described above. Olinciguat was formulated as a suspension in a vehicle containing 0.5% methylcellulose and 0.2% Tween. Rats were p.o. dosed with a dosing volume of 5 ml/kg. […] Using plasma from tail vein, olinciguat plasma concentrations were determined at 1, 6, and 24 h post-dose on day 4 and reported as the mean from Wistar (n=3) and SHR (n=3). Hemodynamics were recorded hourly during a 24-h baseline period and over the first 3 days of dosing.
Maximum change from baseline of mean arterial pressure (MAP) was calculated using the 24-h pre-first dose average subtracted from the lowest MAP value recorded within 2 h following dosing. The 1-h post-dose change from baseline heart rate (HR) was calculated using the 3-h pre-first dose average subtracted from the 1-h post-dose average.
In the hemodynamic study in Wistar and SHR, hourly MAP data were analyzed using a repeated measures two-way ANOVA, with time and treatment group as independent variables. Significance at each timepoint was determined as compared to the vehicle control using a Dunnett's post-hoc test.

[3] = Dahl salt-sensitive rat model; assay type: in vivo; details: male, Dahl salt-sensitive (DSS), rat, plasma, oral; DSS rats, 10 mg/kg/day in chow, week 6, n=6; read-out: average total plasma concentration of olinciguat
Procedure: as §1
(§2) Male DSS rats (n = 48, 230–300 g) were implanted with telemetry transmitters as described above. During the 2-week pretreatment period and the 6-week treatment period, rats were either fed a NS diet (0.3% NaCl, n=8) or a HS diet (8% NaCl). During the treatment period, one group of HS rats was continued on HS diet (HS, n=8) and a second group of HS rats was switched to a HS diet containing olinciguat targeting the dose equivalent of 10 mg/kg/day (OLI10, n=8). At the end of the 6-week treatment period, body weight was measured, urine was collected over a 24-h period using a metabolic cage for urinalysis, and blood samples were collected for plasma biomarker analyses. At the end of the study, rats were anesthetized, and whole bodies were perfused via the left ventricle with heparinized PBS (1 U/ml heparin) containing IBMX (1mM). Organs were collected and weighed. All organ weights were normalized to body weight. After weighing the heart, the right ventricular free wall was removed, and the left ventricular free wall plus left ventricular septum (LV+S) were weighed.
(§3) In the DSS model, daily MAP (24-h average) data were analyzed using two-way ANOVA, with time and treatment group as independent variables. For each day, groups were compared to the HS group with a Dunnett's post-hoc test. Body weight, LV+S, cardiac weight, lung weight, kidney weight, plasma NT-proBNP, and 24-h urine protein excretion (UPE) data were analyzed by one-way ANOVA, followed by Dunnett's multiple comparison to the HS group.

[4] = test system: Dahl salt-sensitive (DSS) rats on high salt diet; assay: Dahl salt-sensitive rat model; assay type: in vivo; details: for MAP at the end of the treatment period: 6 weeks; for LV+S weight normalized to body weight: end of 6-week treatment
Procedure: as §1, §2, §3

For `NC(=O)[C@](O)(CNc1nc(-c2cc(-c3ccon3)n(Cc3ccccc3F)n2)ncc1F)C(F)(F)F` [olinciguat, (R)-3,3,3-trifluoro-2-(((5-fluoro-2-(1-(2-fluorobenzyl)-5-(isoxazol-3-yl)-1H-pyrazol-3-yl)pyrimidin-4-yl)amino)methyl)-2-hydroxypropanamide], the “mean relaxation at 10 μM” value ([1]; 10 μM olinciguat, relative to U46619-mediated contraction) was 94.8%, the EC50 ([1]; Table 2 summary, read-out: Human vascular relaxation EC50, olinciguat concentration (range = 95% CI)) was 16 to 38 nM and the EC50 ([1]; pre-contracted with U46619 100 nM, n=3 donors, 95% CI 16 to 38 nM, read-out: EC50, relaxation of pre-contracted arteries) was 24.3 nM. For the same molecule, the “MAP vs vehicle-treated rats” value ([2]; 1 mg/kg p.o. QD) was “only lower than vehicle-treated rats on the third day of dosing”, the “MAP vs vehicle-treated rats” value ([2]; 3 mg/kg p.o. QD, 6-h period following dosing on all 3 days) was “significantly lower than vehicle-treated rats” and the “MAP vs vehicle-treated rats” value ([2]; 10 mg/kg p.o. QD, 6-h period following dosing on all 3 days) was “significantly lower than vehicle-treated rats”. The “maximum absolute change in MAP” value ([2]; 10 mg/kg p.o. QD, day 3, 10 mg/kg) was −26 ± 2 mmHg and −26^b mmHg, the concentration at 6 weeks [3] was 25.4 ± 3.8 nM and the “Olinciguat concentration (free)” value ([4]; 10 mg/kg/day, total plasma concentration x 1.0% free) was 0.22–0.29 nM^e. The “MAP at the end of the treatment period” value ([4]; HS diet, olinciguat 10 mg/kg/day in chow) was 192 mmHg, the “MAP at the end of the treatment period” value ([4]; HS diet, olinciguat 10 mg/kg/day in chow, listed as OLI10) was 192 ± 7 mmHg and the “MAP on day 16 (after treatment initiation)” value ([4]; HS diet, olinciguat 10 mg/kg/day in chow, 161 ± 7 mmHg on day 14 before treatment) was 146 ± 7 mmHg. The “lung weight, fold higher than in NS” value ([4]; HS diet, olinciguat 10 mg/kg/day vs NS control) was 1.2 fold, the “lung weight normalized to body weight” value ([4]; HS diet, olinciguat 10 mg/kg/day, HS 8.9 ± 1.7) was “↓ lung weight” and the “lung weight normalized to body weight” value ([4]; HS diet, olinciguat 10 mg/kg/day, HS 8.9 ± 1.7, listed as OLI10) was 4.0 ± 0.1 g/kg BW. The normalized kidney weight ([4]; HS diet, olinciguat 10 mg/kg/day, HS 10.9 ± 0.5, not significantly different) was 10.2 ± 0.23 g/kg BW, the “24-h urine protein excretion (UPE)” value ([4]; HS diet, olinciguat 10 mg/kg/day, HS 643 ± 60, not statistically significant) was 599 ± 70 mg and the “average body weight at the end of the treatment period” value ([4]; HS diet, olinciguat 10 mg/kg/day, HS control 364 ± 19) was 412 ± 11 g. The “cardiac weight vs HS” value ([4]; HS diet, olinciguat 10 mg/kg/day, data not shown) was “lower in OLI10 than HS”, the “LV+S weight normalized to body weight” value ([4]; HS diet, olinciguat 10 mg/kg/day, HS 4.1 ± 0.2) was “↓ cardiac hypertrophy” and the “LV+S weight normalized to body weight” value ([4]; HS diet, olinciguat 10 mg/kg/day, HS 4.1 ± 0.2, listed as OLI10) was 3.3 ± 0.1 g/kg BW. The “difference in MAP between olinciguat-treated and HS disease control at end of treatment period” value ([4]; HS diet, olinciguat 10 mg/kg/day, lower than HS, listed as OLI10) was 15 mmHg, the “plasma NT-proBNP” value ([4]; HS diet, olinciguat 10 mg/kg/day, n=6, HS 2,833 ± 416) was “↓ NT-proBNP” and the “plasma NT-proBNP” value ([4]; HS diet, olinciguat 10 mg/kg/day, n=6, HS 2,833 ± 416, listed as OLI10) was 1,235 ± 301 pg/ml. For the same molecule, the “NT-proBNP, percent lower than untreated controls” value ([4]; olinciguat 10 mg/kg/day) was 56%.
